Source: patent US7279575B2, “Pyrimidylpyrrole derivatives active as kinase inhibitors” (Pfizer Italia S.r.l., priority 2003, dated 2007)
Values joined by “and” are separate entries in the source; they are usually repeats but may differ in a detail not shown here. Equal values may be shown once. Where a name gives a salt, the structure may show the parent alone.

Target: Cdc7/Dbf4 (Homo sapiens, UniProt O00311)
Assay: Inhibition assay of Cdc7/Dbf4 activity (Dowex resin capture, 33P-ATP, MCM2 substrate)
Assay type: biochemical
Settings: MCM2 6 μM, ATP 2 μM, Cdc7/Dbf4 2 nM, 60 minutes at room temperature
Description: The inhibiting activity of putative Cdc7 inhibitors and the potency of selected compounds is determined through a method of assay based on the use of Dowex resin capture technology. The assay consists of the transfer of radioactivity labeled phosphate moiety by the kinase to an acceptor substrate. The resulting 33P-labeled product is separated from unreacted tracer, transferred into a scintillation cocktail and light emitted is measured in a scintillation counter.
Inhibition Assay of Cdc7/Dbf4 Activity
The inhibition assay of Cdc7/Dbf4 activity is performed according to the following protocol. The MCM2 substrate is trans-phosphorylated by the Cdc7/Dbf4 complex in the presence of ATP traced with γ^33-ATP. The reaction is stopped by addition of Dowex resin in the presence of formic acid. Dowex resin particles capture unreacted γ^33-ATP and drag it to the bottom of the well while ^33p phosphorylated MCM2 substrate remains in solution. The supernatant is collected, transferred into Optiplate plates and the extent of substrate phosphorylation is evaluated by β counting.
The inhibition assay of Cdc7/Dbf4 activity was performed in 96 wells plate according to the following protocol.
To each well of the plate were added: • 10 μl test compound (10 increasing concentrations in the nM to μM range to generate a dose-response curve). The solvent for test compounds contained 3% DMSO. (final concentration 1%) • 10 μl substrate MCM2 (6 μM final concentration), a mixture of cold ATP (2 μM final concentration) and radioactive ATP (1/5000 molar ratio with cold ATP). • 10 μl enzyme (Cdc7/Dbf4, 2 nM final concentration) that started the reaction. The buffer of the reaction consisted in 50 mM HEPES pH 7.9 containing 15 mM MgCl2, 2 mM DTT, 3 μM NaVO3, 2 mM glycerophosphate and 0.2 mg/ml BSA.
After incubation for 60 minutes at room temperature, the reaction was stopped by adding to each well 150 μl of Dowex resin in the presence of 150 mM formic acid. After another 60 min incubation, 50 μL of suspension were withdrawn and transferred into 96-well OPTIPLATEs containing 150 μl of MicroScint 40 (Packard); after 5-10 minutes shaking the plates were read for 1 min in a Packard TOP-Count radioactivity reader.
(§1) IC50 determination: inhibitors were tested at different concentrations ranging from 0.0005 to 10 μM. Experimental data were analyzed by the computer program Assay Explorer using the four parameter logistic equation: y=bottom+(top−bottom)/(1+10^((log|C50−x)*slope)) where x is the logarithm of the inhibitor concentration, y is the response; y starts at bottom and goes to top with a sigmoid shape.

Chain of Cdc7/Dbf4 (O00311 whole entry, species assumed): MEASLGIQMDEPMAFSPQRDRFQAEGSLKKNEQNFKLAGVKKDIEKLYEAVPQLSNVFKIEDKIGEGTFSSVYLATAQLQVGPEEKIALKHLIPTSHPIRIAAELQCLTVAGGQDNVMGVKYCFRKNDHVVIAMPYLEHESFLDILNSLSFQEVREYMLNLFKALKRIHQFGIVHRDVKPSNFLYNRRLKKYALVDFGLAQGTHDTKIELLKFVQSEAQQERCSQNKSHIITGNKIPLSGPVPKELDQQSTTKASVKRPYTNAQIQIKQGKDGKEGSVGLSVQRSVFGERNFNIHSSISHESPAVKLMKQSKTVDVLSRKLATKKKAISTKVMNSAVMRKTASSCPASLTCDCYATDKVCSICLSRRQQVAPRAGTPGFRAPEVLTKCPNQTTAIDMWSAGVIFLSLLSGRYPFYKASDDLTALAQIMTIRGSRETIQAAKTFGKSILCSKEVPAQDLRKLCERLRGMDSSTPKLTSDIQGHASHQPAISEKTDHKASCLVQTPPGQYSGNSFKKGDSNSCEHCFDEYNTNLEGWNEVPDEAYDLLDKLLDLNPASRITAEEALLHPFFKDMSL
Chain of Cdc7/Dbf4 (Q9UBU7 whole entry partner, species assumed): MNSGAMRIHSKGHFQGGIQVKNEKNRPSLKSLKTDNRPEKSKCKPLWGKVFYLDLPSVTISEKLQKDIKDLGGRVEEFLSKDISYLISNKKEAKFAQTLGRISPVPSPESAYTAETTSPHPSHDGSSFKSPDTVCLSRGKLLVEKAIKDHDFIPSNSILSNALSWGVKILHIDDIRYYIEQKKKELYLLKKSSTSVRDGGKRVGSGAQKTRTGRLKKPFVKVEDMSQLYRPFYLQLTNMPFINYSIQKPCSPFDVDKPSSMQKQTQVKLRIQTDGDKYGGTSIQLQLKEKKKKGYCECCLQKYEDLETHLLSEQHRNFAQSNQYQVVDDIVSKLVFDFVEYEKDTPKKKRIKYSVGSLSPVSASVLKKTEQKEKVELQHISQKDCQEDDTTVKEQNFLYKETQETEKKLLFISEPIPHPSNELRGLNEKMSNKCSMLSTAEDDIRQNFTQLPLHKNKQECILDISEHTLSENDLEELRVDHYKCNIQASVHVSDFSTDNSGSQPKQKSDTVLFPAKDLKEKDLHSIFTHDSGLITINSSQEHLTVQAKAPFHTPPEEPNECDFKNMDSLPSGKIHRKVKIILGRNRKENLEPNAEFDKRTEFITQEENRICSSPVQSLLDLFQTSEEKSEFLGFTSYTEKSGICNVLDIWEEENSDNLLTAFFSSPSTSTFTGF

Structure (SMILES)	IC50
CC1CNC(=O)c2cc(-c3ccnc(N)n3)[nH]c21 (racemic) [2-(2-aminopyrimidin-4-yl)-7-methyl-1,5,6,7-tetrahydro-4H-pyrrolo[3,2-c]pyridin-4-one]	0.008 µM
CC1CNC(=O)c2cc(-c3ccnc(N)n3)[nH]c21 (single isomer, unassigned) [(7R or 7S)-2-(2-aminopyrimidin-4-yl)-7-methyl-1,5,6,7-tetrahydro-4H-pyrrolo[3,2-c]pyridin-4-on]	0.004 µM
CC1CNC(=O)c2cc(-c3ccnc(N)n3)[nH]c21 (single isomer, unassigned) [(7R or 7S)-2-(2-aminopyrimidin-4-yl)-7-methyl-1,5,6,7-tetrahydro-4H-pyrrolo[3,2-c]pyridin-4-one]	0.005 µM
Nc1nccc(-c2cc3c([nH]2)CCNC3=O)n1 [2-(2-aminopyrimidin-4-yl)-1,5,6,7-tetrahydro-4H-pyrrolo[3,2-c]pyridin-4-one hydrochloride]	0.011 µM
Nc1nccc(-c2[nH]c3c(c2I)C(=O)NCC3)n1 [2-(2-aminopyrimidin-4-yl)-3-iodo-1,5,6,7-tetrahydro-4H-pyrrolo[3,2-c]pyridin-4-one]	0.004 µM
CC1(C)Cc2[nH]c(-c3ccnc(N)n3)cc2C(=O)N1 [2-(2-aminopyrimidin-4-yl)-6,6-dimethyl-1,5,6,7-tetrahydro-4H-pyrrolo[3,2-c]pyridin-4-one hydrochloride]	0.032 µM
CC(C)CC1Cc2[nH]c(-c3ccnc(N)n3)cc2C(=O)N1 (stereo not shown) [2-(2-aminopyrimidin-4-yl)-6-isobutyl-1,5,6,7-tetrahydro-4H-pyrrolo[3,2-c]pyridin-4-one]	0.004 µM
CC(C)C1Cc2[nH]c(-c3ccnc(N)n3)cc2C(=O)N1 (stereo not shown) [2-(2-aminopyrimidin-4-yl)-6-isopropyl-1,5,6,7-tetrahydro-4H-pyrrolo[3,2-c]pyridin-4-one]	0.009 µM
CC1Cc2[nH]c(-c3ccnc(N)n3)cc2C(=O)N1 (stereo not shown) [2-(2-aminopyrimidin-4-yl)-6-methyl-1,5,6,7-tetrahydro-4H-pyrrolo[3,2-c]pyridin-4-one]	0.026 µM
CCC1(CC)CNC(=O)c2cc(-c3ccnc(N)n3)[nH]c21 [2-(2-aminopyrimidin-4-yl)-7,7-diethyl-1,5,6,7-tetrahydro-4H-pyrrolo[3,2-c]pyridin-4-one]	0.007 µM
CC1(C)CNC(=O)c2cc(-c3ccnc(N)n3)[nH]c21 [2-(2-aminopyrimidin-4-yl)-7,7-dimethyl-1,5,6,7-tetrahydro-4H-pyrrolo[3,2-c]pyridin-4-one]	0.002 µM
CC(C)C1CNC(=O)c2cc(-c3ccnc(N)n3)[nH]c21 (stereo not shown) [2-(2-aminopyrimidin-4-yl)-7-isopropyl-1,5,6,7-tetrahydro-4H-pyrrolo[3,2-c]pyridin-4-one]	0.008 µM
Nc1nccc(-c2cc3c([nH]2)C(c2ccccc2)CNC3=O)n1 (stereo not shown) [2-(2-aminopyrimidin-4-yl)-7-phenyl-1,5,6,7-tetrahydro-4H-pyrrolo[3,2-c]pyridin-4-one hydrochloride]	0.015 µM
O=C1NCC(c2ccccc2)c2[nH]c(-c3ccnc(Nc4ccccc4)n3)cc21 (stereo not shown) [2-(2-anilinopyrimidin-4-yl)-7-phenyl-1,5,6,7-tetrahydro-4H-pyrrolo[3,2-c]pyridin-4-one hydrochloride]	0.029 µM
O=C1NCCc2[nH]c(-c3ccnc(Nc4ccccc4)n3)cc21 [2-(2-phenylaminopyrimidin-4-yl)-1,5,6,7-tetrahydro-4H-pyrrolo[3,2-c]pyridin-4-one hydrochloride]	0.007 µM
O=C1NCCc2[nH]c(-c3ncnc4[nH]cnc34)cc21 [2-(9H-purin-6-yl)-1,5,6,7-tetrahydro-4H-pyrrolo[3,2-c]pyridin-4-one hydrochloride]	0.2 µM
O=C1NCCc2[nH]c(-c3ccnc(NCc4ccccc4)n3)cc21 [2-[2-(benzylamino)pyrimidin-4-yl]-1,5,6,7-tetrahydro-4H-pyrrolo[3,2-c]pyridin-4-one]	0.27 µM
CCCNc1nccc(-c2cc3c([nH]2)CCNC3=O)n1 [2-[2-(propylamino)pyrimidin-4-yl]-1,5,6,7-tetrahydro4H-pyrrolo[3,2-c]pyridin-4-one]	0.31 µM
O=C1NCCc2[nH]c(-c3ccncn3)cc21 [2-pyrimidin-4-yl-1,5,6,7-tetrahydro-4H-pyrrolo[3,2-c]pyridin-4-one hydrochloride]	0.019 µM
O=C1NCCc2[nH]c(-c3ccnc(NCc4ccco4)n3)cc21 [2-{2-[(2-furylmethyl)amino]pyrimidin-4-yl}-1,5,6,7-tetrahydro-4H-pyrrolo[3,2-c]pyridin-4-one]	0.074 µM and 0.087 µM
O=C1NCCc2[nH]c(-c3ccnc(NCC4CCCCC4)n3)cc21 [2-{2-[(cyclohexylmethyl)amino]pyrimidin-4-yl}-1,5,6,7-tetrahydro-4H-pyrrolo[3,2-c]pyridin-4-one]	0.68 µM
O=C1NCC(c2ccccc2)c2[nH]c(-c3ncnc4[nH]cnc34)cc21 (stereo not shown) [7-phenyl-2-(9H-purin-6-yl)-1,5,6,7-tetrahydro-4H-pyrrolo[3,2-c]pyridin-4-one hydrochloride]	0.09 µM
O=C1NCC(c2ccccc2)c2[nH]c(-c3ccncn3)cc21 (stereo not shown) [7-phenyl-2-pyrimidin-4-yl-1,5,6,7-tetrahydro-4H-pyrrolo[3,2-c]pyridin-4-one hydrochloride]	0.032 µM
O=C(Nc1nccc(-c2cc3c([nH]2)CCNC3=O)n1)c1ccccc1 [N-[4-(4-oxo-4,5,6,7-tetrahydro-1H-pyrrolo[3,2-c]pyridin-2-yl)pyrimidin-2-yl]benzamide]	0.3 µM
CC(=O)Nc1ccc(CNc2nccc(-c3cc4c([nH]3)CCNC4=O)n2)cc1 [N-[4-({[4-(4-oxo-4,5,6,7-tetrahydro-1H-pyrrolo[3,2-c]pyridin-2-yl)pyrimidin-2-yl]amino}methyl)phenyl]acetamide trifluoroacetate]	0.3 µM
CCOC(=O)Nc1nccc(-c2cc3c([nH]2)CCNC3=O)n1 [ethyl 4-(4-oxo-4,5,6,7-tetrahydro-1H-pyrrolo[3,2-c]pyridin-2-yl)pyrimidin-2-ylcarbamate]	0.08 µM

Target: cdk2/Cyclin A (Homo sapiens, UniProt P24941)
Assay: Inhibition assay of cdk2/Cyclin A activity (SPA, biotinylated histone H1)
Assay type: biochemical
Settings: histone H1 4 μM, ATP 10 μM, Cyclin A/CDK2 1.1 nM, 60 min at room temperature
Description: The inhibiting activity of putative cdk/cyclin inhibitors and the potency of selected compounds may be determined through a method of assay based on the use of the SPA technology (Amersham Pharmacia Biotech).
The assay consists of the transfer of radioactivity labelled phosphate moiety by the kinase to a biotinylated substrate. The resulting 33P-labelled biotinylated product is allowed to bind to streptavidin-coated SPA beads (biotin capacity 130 pmol/mg), and light emitted was measured in a scintillation counter.
Inhibition Assay of cdk2/Cyclin A Activity
Kinase reaction: 4 μM in house biotinylated histone H1 (Sigma # H-5505) substrate, 10 μM ATP (0.1 microCi P^33γ-ATP), 1.1 nM Cyclin A/CDK2 complex, inhibitor in a final volume of 30 μl buffer (TRIS HCl 10 mM pH 7.5, MgCl2 10 mM, DTT 7.5 mM+0.2 mg/ml BSA) were added to each well of a 96 U bottom. After incubation for 60 min at room temperature, the reaction was stopped by addition of 100 μl PBS buffer containing 32 mM EDTA, 500 μM cold ATP, 0.1% Triton X100 and 10 mg/ml streptavidin coated SPA beads. After 20 min incubation, 110 μL of suspension were withdrawn and transferred into 96-well OPTIPLATEs containing 100 μl of 5M CsCl. After 4 hours, the plates were read for 2 min in a Packard TOP-Count radioactivity reader.
as §1, with “0.0015” for “0.0005”, “GraphPad Prizm” for “Assay Explorer”, “y=bottom+(top−bottom)/(1+10^((loglC50−x)*slope))” for “y=bottom+(top−bottom)/(1+10^((log|C50−x)*slope))”

Structure (SMILES)	IC50 [µM]
CC(C)CNc1nccc(-c2cc3c([nH]2)CCNC3=O)n1 [2-[2-(isobutylamino)pyrimidin-4-yl]-1,5,6,7-tetrahydro-4H-pyrrolo[3,2-c]pyridin-4-one]	0.05
CCCNc1nccc(-c2cc3c([nH]2)CCNC3=O)n1 [2-[2-(propylamino)pyrimidin-4-yl]-1,5,6,7-tetrahydro4H-pyrrolo[3,2-c]pyridin-4-one]	0.035
O=C1NCCc2[nH]c(-c3ccnc(NCc4ccco4)n3)cc21 [2-{2-[(2-furylmethyl)amino]pyrimidin-4-yl}-1,5,6,7-tetrahydro-4H-pyrrolo[3,2-c]pyridin-4-one]	0.08
O=C1NCCc2[nH]c(-c3ccnc(NCC4CCCCC4)n3)cc21 [2-{2-[(cyclohexylmethyl)amino]pyrimidin-4-yl}-1,5,6,7-tetrahydro-4H-pyrrolo[3,2-c]pyridin-4-one]	0.22
CC(=O)Nc1ccc(CNc2nccc(-c3cc4c([nH]3)CCNC4=O)n2)cc1 [N-[4-({[4-(4-oxo-4,5,6,7-tetrahydro-1H-pyrrolo[3,2-c]pyridin-2-yl)pyrimidin-2-yl]amino}methyl)phenyl]acetamide trifluoroacetate]	0.02
